Laboratory results reported in PubChem BioAssay AID2305 (GlaxoSmithKline (GSK), 2010).

Test system: P. falciparum 3D7 growth, pLDH absorbance
Assay: P. falciparum 3D7 growth inhibition, dose response, strain 3D7 (AID 2305)

| Compound | IC50 [nM] |
| --- | --- |
| Cc1cccc2[nH]c(-c3cccc(-c4cccc(NC(=O)Nc5cccc(C#N)c5)c4)c3)nc12 | 100 |
| c1ccc(CN2CCc3cc4nccc(N5CCNCC5)c4cc32)cc1 | 400 |
| c1ccc([C@H]2CN3CCSC3=N2)cc1 | 620 |
| FC(F)(F)c1ccc2nc(-c3cccc(-c4ccc(CNCC5CCCO5)cc4)c3)[nH]c2c1 (centres undefined) | 280 |
| CCN1CCN(CC(O)CNC(=O)Nc2ccc(Cl)cc2)CC1 (centres undefined) | 150 |
| CCCCN(Cc1cnccc1-c1ccc(Br)cc1)c1ccc(C(O)(C(F)(F)F)C(F)(F)F)cc1 | 1060 |
| Cc1cc(-c2nc3ccc(CN4CCN(C)CC4)cc3[nH]2)nn1Cc1cc(Cl)ccc1OCc1ccccc1 | 1120 |
| CCN1C(=O)N(CCC(C)C)C2(CCN(Cc3ccc(OC)cc3O)CC2)C1=O | 870 |
| CN(C)C(=O)c1ccc(CN(Cc2ccc3c(c2)OCCO3)Cc2ccc3c(c2)OCO3)cc1 | 180 |
| O=S(=O)(Nc1ccc(CCN2CCC(N3CCCCC3)CC2)cc1)c1ccccc1C(F)(F)F | 1020 |
| CN1CCN(c2cc(-c3ccncc3)nc(-c3cccnc3)n2)CC1 | 810 |
| CN(C)c1ccc(-c2ccc(C(=O)NC3CCN(Cc4ccccc4F)CC3)s2)cc1 | 1400 |
| Cc1[nH]c2ccccc2c1C(=O)C(C)Sc1nnc(-c2ccccc2F)o1 (centres undefined) | 690 |
| Cc1cnc(N2CCN(CCCN3CCCC3)CC2)nc1Oc1ccc(-n2ccnc2)cc1 | 900 |
| CC(O)C1CCCCN1C(=O)c1cccc(-c2cccc(-c3nc4ccc(F)cc4[nH]3)c2)c1 (centres undefined) | 540 |
| O=C(Nc1cccc(CN2CCCN(Cc3ccc(F)cc3)CC2)c1)c1cc2ccccc2s1 | 790 |
| CCOc1c(CNCCCNc2nc3ccccc3[nH]2)cc(Br)cc1OC | 560 |
| CCOC(=O)c1c(C)n(-c2ccccc2)c2ccc(OC(=O)c3ccc(S(=O)(=O)N(CC)CC)cc3)cc12 | 750 |
| O=C(Nc1nc(-c2cc(F)ccc2F)cs1)c1cncc(Br)c1 | 1080 |
| CN(Cc1cccc(F)c1)C1CCCN(c2cc(NC(=O)c3ccccc3)ccn2)C1 (centres undefined) | 920 |
| CC(C)[C@H](NC(=O)c1ccc(O)c(-c2ccc(Cl)c(Cl)c2)c1)C(=O)NCCN1CCOCC1 | 910 |
| O=[N+]([O-])c1ccc(NC(=NCCOc2ccccc2)Nc2ccccc2Br)c(O)c1 | 1050 |
| CCn1ccc2c(N3CCCC3=O)cc(C(=O)N[C@@H](Cc3ccccc3)[C@H](O)CNC(C)(C)CCCC(C)C)cc21 | 350 |
| CCCC(C)N(Cc1ccc(C(C)(C)C)cc1)C(=O)c1cccc(C#N)c1 (centres undefined) | 1050 |
| O=S(=O)(Nc1cccc(CCN2CCC(N3CCCCC3)CC2)c1)c1cccc2cccnc12 | 850 |

| Compound | IC50 [nM] |
| --- | --- |
| CC(=O)CSC(C=Cc1ccc(N(C)C)cc1)=Nc1ccccc1 | 1120 |
| COc1cccc(NC(=O)NC2CCN(CCCCCNC(=O)/C=C/c3ccc(Cl)c(Cl)c3)CC2)c1 | 780 |
| FC(F)(F)c1ccc2nc(-c3cccc(-c4cccc(CNCCc5ccncc5)c4)c3)[nH]c2c1 | 140 |
| Cc1ccc(NC(=O)NC2CCN(c3ccnc4ccccc34)CC2)cc1 | 790 |
| Cc1nnsc1C(=O)Nc1cccc(-c2cccc(-c3nc4ccccc4[nH]3)c2)c1 | 440 |
| Cc1[nH]c2ccccc2c(=O)c1[N+](=O)[O-] | 1110 |
| COCCn1c(Sc2ccc(C#N)c([N+](=O)[O-])c2)nnc1-c1ccc(N(C)C)cc1 | 1030 |
| COc1ccc(OCc2ccccn2)c(C2CCN(CCCCNC(=O)c3ccc(NC(=O)c4ccc(Cl)cc4)cc3)CC2)c1 | 760 |
| CC(=O)Nc1ccc(CN2CCCN(c3cc(NC(=O)c4cccc(C)c4)ccn3)CC2)cc1 | 860 |
| COc1cccc(NC(=O)Cn2c(C)c(C#N)c3ccccc32)c1 | 880 |
| CC(O)C1CCCCN1C(=O)c1ccc(-c2ccc(-c3nc4ccccc4[nH]3)s2)cc1 (centres undefined) | 970 |
| CN(C)C(=O)n1cnc(S(=O)(=O)N(C)c2ccc(Cl)cc2)n1 | 770 |
| CCn1c2c(c(=N)c3ccccc31)CCC2 | 500 |
| Cn1cnc2c(Nc3ccncc3)nc(-c3ccc(OC(F)(F)F)cc3)nc21 | 1100 |
| CCOC(=O)N1CCN(CCCCNc2c3ccc(Cl)cc3nc3ccc(OC)cc23)CC1 | 120 |
| CN1CCc2cc(NS(=O)(=O)c3ccc(-c4ccc(Cl)cc4)cc3)c(OCCCN3CCCCC3)cc2CC1 | 960 |
| CC(=O)c1sc2ccccc2c1O | 880 |
| Nc1c(Cl)cc(C(O)CNCCCCCOCCc2ccccc2)cc1C(F)(F)F (centres undefined) | 980 |
| O=C(NCCCCN1CC=C(c2ccc3c(c2OCc2ccccc2)CCCC3)CC1)c1ccc(-c2ccc(C(F)(F)F)cc2)cc1 | 300 |
| CN(C)CCCOc1ccc(CNCc2cccc(Oc3ccc(Cl)cc3)c2)cc1 | 820 |
| Cc1cc(CNCCCCCCNCc2cccc([N+](=O)[O-])c2)ccc1O | 720 |
| O=C(C=Cc1ccc(Cl)c(Cl)c1)NCCCCCN1CCC(CCNC(=O)c2sc3ccccc3c2Cl)CC1 | 1010 |
| COc1cccc(Nc2nccc(-c3c(-c4cccc(NC(=O)c5c(F)cccc5F)c4)nn4ccccc34)n2)c1 | 180 |
| c1ccc(COc2ccc(Cn3ccc(-c4ccc(-n5ccnc5)cc4)n3)cc2)cc1 (tested in a mixture with another compound) | 1020 |
| O=c1sn(-c2csc3ccccc23)c2ccccc12 | 340 |

| Compound | IC50 [nM] |
| --- | --- |
| O=S(=O)(c1c(Cl)cc(Cl)cc1Cl)N1CCCCC(c2ccc(F)c(F)c2)=N1 | 590 |
| O=C(Nc1cccc(-c2nn3ccccc3c2-c2ccnc(Nc3cccc(C(F)(F)F)c3)n2)c1)c1c(F)cccc1F | 630 |
| Cc1cc(N[C@@H](CC(C)C)C(=O)NCCc2ccccc2)nc(Nc2ccccc2)n1 | 820 |
| CC(C)CNCc1cccc(-c2ccccc2CN(C(=O)Nc2ccccc2)C2CCN(Cc3ccccc3)CC2)c1 | 640 |
| CCN(CC)CCCC(C)Nc1ccnc2cc(C#N)ccc12 (centres undefined) | 140 |
| C[C@@H]1CN(CCCn2c3ccccc3c3ccc(C(=O)CCCN(C)C)cc32)C[C@H](C)N1 | 810 |
| N=c1ccn(CC(=NO)c2ccc(Cl)c(Cl)c2)cc1 | 940 |
| O=C(Nc1ccc2c(c1)CCC2)c1cccc(CN2CCCN(Cc3cccc(O)c3)CC2)c1 | 1080 |
| CCC(=O)NC(c1ccco1)c1cc(Cl)c2cccnc2c1O (centres undefined) | 870 |
| CCCCn1c(Sc2ccc(C#N)c([N+](=O)[O-])c2)nnc1-c1cccc(Cl)c1 | 760 |
| O=C(C1COc2ccccc2O1)N(CCCn1ccnc1)Cc1csc(-c2ccc(CNCc3ccccc3)cc2)n1 (centres undefined) | 620 |
| CC(C)CCN1CCC(Oc2ccc(NC(=O)c3ccsc3)cc2Cl)CC1 | 1040 |
| O=C(Nc1cccc(C(F)(F)F)c1)NC1CCN(c2ccnc3ccccc23)CC1 | 990 |
| CS(=O)(=O)CCNCc1ccc(-c2ccc3ncnc(Nc4ccc(OCc5ccccc5)c(Cl)c4)c3c2)o1 | 560 |
| CNC(=O)c1cnc(Nc2ccc(N3CCN(C)CC3)cc2)nc1Nc1cccc(OC)c1 | 750 |
| CCCCC(N)COc1cccc2c(-c3ccncc3)c(-c3cccc(NC(=O)Nc4ccccc4)c3)nn12 (centres undefined) | 880 |
| CC1CCCN1Cc1cccc(-c2ccc(C(=O)NCCOc3ccccc3)s2)c1 (centres undefined) | 930 |
| COc1ccc(C2C(C(=O)Nc3ccccc3)=C(C)Nc3c(C(=O)Nc4ccccc4)cnn32)cc1 (centres undefined) | 1310 |
| COc1cccc(OC2CCN(C(=O)c3ccc(-c4ccc(N5CCCC5=O)cc4C)cc3)CC2)c1 | 1010 |
| Cc1ccc(-n2cc(CNCCCn3ccnc3)c(-c3cccc(C)c3)n2)cc1 | 770 |
| COc1ccc(S(=O)(=O)N2CCCC(C)C2)cc1N1CCN(C(=O)c2ccc([N+](=O)[O-])o2)CC1 (centres undefined) | 1250 |
| Cc1cc(N)nc2ccc(-c3cccc(CN)c3)cc12 | 710 |
| N#Cc1cccc(C(=O)Nc2ccc(-c3ccc(CN4CCCC4)cc3)cc2)c1 | 1150 |
| O=C(NCCCN1CCOCC1)c1cccc(Nc2nccc(Nc3ccc(Oc4ccccc4)cc3)n2)c1 | 770 |
| Cc1[nH]nc2ccc(-c3cc(OC[C@@H](N)Cc4ccccc4)cnc3-c3ccc(OCc4cccc(F)c4)cc3)cc12 | 730 |

| Compound | IC50 [nM] |
| --- | --- |
| COc1ccc2ncc(F)c(CCN3CC[C@@H](CNCc4cc5c(cn4)OCS5)C3)c2n1 | 1160 |
| O=C(Nc1ccc(-c2nc3ccccc3[nH]2)cc1)c1ccc(S(=O)(=O)N2CCc3ccccc32)cc1 | 740 |
| CC(C)OC(=O)c1ccc(NC(=O)N[C@@H](Cc2ccc(O)cc2)C(=O)NC2CCC(CCN3[C@@H]4CC[C@H]3c3ccccc34)CC2)cc1 (some centres undefined) | 830 |
| Oc1ccc2c(c1CNC1CCCCC1)CCCC2 | 940 |
| O=C(/C=C/c1ccc(Cl)c(Cl)c1)NCCCCCN1CCC(NC(=O)Nc2cc(Cl)ccc2Cl)CC1 | 430 |
| CN1CCCN(Cc2cccc(-c3cccc(NC(=O)c4ccc(Cl)cc4)c3)c2)CC1 | 920 |
| C[C@@H](Oc1cc(-n2cnc3cc(SCCN4CCN(C)CC4)ccc32)sc1C(N)=O)c1ccccc1Cl | 510 |
| COc1ccc2nc(C)cc(NN=Cc3ccccc3Cl)c2c1 | 600 |
| CCc1c[nH]c2c(N3CCCC3=O)cc(C(=O)N[C@@H](Cc3ccccc3)[C@H](O)CNC(C)(C)CCCC(C)C)cc12 | 510 |
| Cc1[nH]c(C)c(-c2ccc(Oc3ccc(F)cc3)cc2)c(=O)c1Br | 50 |
| CC(C)N1CCC(N(Cc2ccc(-c3ccc(C(F)(F)F)cc3)cc2)C(=O)Cn2c(SCc3cccc(F)c3F)nc(=O)c3ccccc32)CC1 | 1050 |
| Cc1cccc2[nH]c(-c3cc(-c4cn[nH]c4)cnc3N)nc12 | 220 |
| O=C(Cn1c(CCc2cccc(F)c2F)cc(=O)c2ccccc21)N(CCN1CCCCC1)Cc1ccc(-c2ccc(C(F)(F)F)cc2)cc1 | 760 |
| CN1CCCN(Cc2ccc(-c3ccc(NC(=O)c4ccc(C#N)cc4)cc3)cc2)CC1 | 1020 |
| Cc1cc(CN2CCCC(OC(c3ccc(F)cc3)c3ccc(F)cc3)C2)ccc1O (centres undefined) | 880 |
| CN1CCC(C(=O)Nc2ccc(-c3ccc(-c4nc5ccc(C(F)(F)F)cc5[nH]4)s3)cc2)CC1 | 990 |
| O=C(NCCCN1CCCC1=O)NCc1ccccc1 | 820 |
| O=S(=O)(Nc1cccc(CCN2CCC(N3CCCCC3)CC2)c1)c1ccc2c(c1)OCCO2 | 1230 |
| CCCCN(C(=O)c1ccccc1C)c1nnc(-c2ccccc2C)s1 | 930 |
| CNC(=O)c1ccccc1Nc1nc(Nc2cccc(CS(C)(=O)=O)c2)ncc1C | 530 |
| Cc1cccc(NC(=O)NC2CCN(CCCCCNC(=O)/C=C/c3ccc(Cl)c(Cl)c3)CC2)c1 | 750 |
| CCCCCCN1CCCN(Cc2ccc(C(=O)Nc3ccc(Cl)cc3)cc2)CC1 | 1210 |
| CCCC(=O)Nc1ccc(Cl)c(NC(=O)COc2cc(C)ccc2C(C)C)c1 | 930 |
| C=C(NC(=O)C1CCCCC1)C(=O)OC | 850 |
